Measured values taken from patent publication US20230123334A1, “AMINO LIPID COMPOUND, PREPARATION METHOD THEREFOR, AND APPLICATION THEREOF” (SHENZHEN SHENXIN BIOTECHNOLOGY CO., LTD., priority 2020, published 2023).

What was measured:
[1] = system: HEK293 cells; test: Preliminary screening as mRNA vectors, EGFP mRNA transfection of HEK293 cells; type: cell-based; settings: HEK293 cells, 96-well plates, EGFP mRNA 50 ng per well; percentage of GFP fluorescent cells relative to total number of cells (Hoechst)
Procedure, shortened: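 HEK293 cells in DMEM plus 10% FBS transfected in 96-well format with 50 ng EGFP mRNA per well; Lipofectamine2000 served as positive control. Read-out is the percentage of GFP-fluorescent cells among total cells, counted by Hoechst nuclear stain.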

[2] = system: HEK293 cells; test: Preliminary screening as DNA vectors, GFP transfection of HEK293 cells; type: cell-based; settings: HEK293 cells; lipid/DOPE liposome with 75 ng plasmid DNA (psin-EGFP-IRES-Puro); number of cells expressing GFP divided by total number of nuclei (Hoechst)
Procedure, shortened: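 HEK293 cells in DMEM/10% FBS transfected with 75 ng EGFP plasmid per well complexed with amino lipid/DOPE liposomes in pH 5.6 sodium acetate. Hoechst nuclear stain added 20-24 h post-transfection, then cells cultured another 20-24 h. Confocal imaging gives GFP-positive cells as % of total nuclei.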

Structure (SMILES) | Absolute mRNA transfection efficiency in HEK293 cells [1] | Absolute DNA transfection efficiency in HEK293 cells [2]
CCCCCCCCCCCCCCCCCCNc1nc(NCCCCCCCCCCCC)nc(NCCCN2CCN(C)CC2)n1 [Compound N12N18D9] | 0.7% | 0.1%
CCCCCCCCCCCCCNc1nc(NCCCCCCCC)nc(NCCN2CCN(C)CC2)n1 [Compound N8N13D5] | 0.0% | 0.0%
CCCCCCCCCCCCCNc1nc(NCCCN(C)C)nc(N(CCCCCCCCCCCC)CCCCCCCCCCCC)n1 [N13^2N12D6] | 3.9% | 1.3%
CCCCCCCCCCCCCCSc1nc(NCCN2CCCCC2)nc(SCCCCCCCCCC)n1 [Compound S10S14D4] | 0.2% | 5.9%
CCCCCCCCCNc1nc(NCCCCCCC)nc(NCCCN2CCN(C)CC2)n1 [Compound N7N9D9] | 0.0% | 0.7%
CCCCCCCNc1nc(NCCCCCCC)nc(NCCN2CCN(C)CC2)n1 [Compound N7N7D5] | 0.5% | 0.0%
CCCCCCCCCCCCCCCCCCNc1nc(NCCCCCCCCC)nc(NCCCN2CCOCC2)n1 [Compound N9N18D8] | 0.3% | 1.4%
CCCCCCCCCCCCCCCCNc1nc(NCCCCCCCCCCCCC)nc(NCCN2CCCCC2)n1 [Compound N13N16D4] | 4.0% | 1.0%
CCCCCCCCCCCCCCCCSc1nc(NCCN(CC)CC)nc(SCCCCCCCCCC)n1 [Compound S10S16D7] | 0.7% | 3.1%
CCCCCCCCCCCCSc1nc(NCCN2CCCC2)nc(SCCCCCCCCCCC)n1 [Compound S11S12D3] | 3.2% | 5.4%
CCCCCCCCCCCCCCCNc1nc(NCCCCCCCCCCCC)nc(NCCN2CCCCC2)n1 [Compound N12N15D4] | 1.3% | 1.4%
CCCCCCCCCCCCCCCNc1nc(NCCCCCC)nc(NCCN(C)C)n1 [Compound N6N15D1] | 0.0% | 0.0%
CCCCCCCCCCCCCCCSc1nc(NCCN2CCN(C)CC2)nc(SCCCCCCCCCCCCCCC)n1 [Compound S15S15D5] | 0.3% | 0.3%
CCCCCCCCCCCCN(CCCCCCCCCCCC)c1nc(NCCCCCCC)nc(NCCN2CCCC2)n1 [N7^2N12D3] | 6.8% | 2.5%
CCCCCCCCCCCCNc1nc(NCCCCCCCC)nc(NCCN2CCCCC2)n1 [Compound N8N12D4] | 0.0% | 0.0%
CCCCCCCCCCCCCCCCNc1nc(NCCCCCCCCC)nc(NCCN2CCCC2)n1 [Compound N9N16D3] | 4.3% | 2.2%
CCCCCCCNc1nc(NCCCCCC)nc(NCCN2CCCCC2)n1 [Compound N6N7D4] | 0.0% | 0.0%
CCCCCCCCCCCSc1nc(NCCCN2CCN(C)CC2)nc(SCCCCCCCCC)n1 [Compound S9S11D9] | 49.7% | 8.5%
CCCCCCCCCCCNc1nc(NCCCCCCCCC)nc(NCCCN(C)C)n1 [Compound N9N11D6] | 0.5% | 0.0%
CCCCCCCCCCCCCCCCNc1nc(NCCCCCCCCCCCC)nc(NCCN(C)C)n1 [Compound N12N16D1] | 4.4% | 2.6%
CCCCCCCCCNc1nc(NCCCCCCC)nc(NCCCN2CCOCC2)n1 [Compound N7N9D8] | 0.0% | 0.0%
CCCCCCCCCCCCCNc1nc(NCCCN2CCOCC2)nc(N(CCCCCCCCCCCC)CCCCCCCCCCCC)n1 [N13^2N12D8] | 2.3% | 0.0%
CCCCCCCCCCCCCCCCCCSc1nc(NCCN2CCN(C)CC2)nc(SCCCCCCCCC)n1 [Compound S9S18D5] | 22.0% | 4.0%
CCCCCCCCCCCCCCCCCCSc1nc(NCCCN(C)C)nc(SCCCCCCCCCCCCCC)n1 [Compound S14S18D6] | 0.2% | 1.2%

Structure (SMILES) | Absolute mRNA transfection efficiency in HEK293 cells [1] | Absolute DNA transfection efficiency in HEK293 cells [2]
CCCCCCCCCCCCCCSc1nc(NCCN(C)C)nc(SCCCCCCCC)n1 [Compound S8S14D1] | 0.7% | 8.3%
CCCCCCCCCNc1nc(NCCCCCCC)nc(NCCN2CCN(C)CC2)n1 [Compound N7N9D5] | 0.2% | 0.0%
CCCCCCCCCCCCSc1nc(NCCN2CCOCC2)nc(SCCCCCCCCCC)n1 [Compound S10S12D2] | 0.0% | 2.4%
CCCCCCCCCCCCCCCCCCSc1nc(NCCN2CCCCC2)nc(SCCCCCCCCCCCCCC)n1 [Compound S14S18D4] | 0.8% | 2.5%
CCCCCCCNc1nc(NCCCCCCC)nc(NCCCN(C)C)n1 [Compound N7N7D6] | 0.0% | 0.0%
CCCCCCCCCCCNc1nc(NCCCCCCCC)nc(NCCN2CCOCC2)n1 [Compound N8N11D2] | 0.0% | 0.0%
CCCCCCCCCCCSc1nc(NCCN(CC)CC)nc(SCCCCCCCCC)n1 [Compound S9S11D7] | 2.5% | 8.1%
CCCCCCCCCCCSc1nc(NCCCN(C)C)nc(SCCCCCCCCC)n1 [Compound S9S11D6] | 85.1% | 41.9%
CCCCCCCCCCCCCCSc1nc(NCCN2CCCCC2)nc(SCCCCCCCCCCCC)n1 [Compound S12S14D4] | 14.0% | 6.7%
CCCCCCCCCCCCSc1nc(NCCN2CCCCC2)nc(SCCCCCCCCCCC)n1 [Compound S11S12D4] | 0.4% | 5.6%
CCCCCCCCCCCCCNc1nc(NCCCCCCCC)nc(NCCN2CCCCC2)n1 [Compound N8N13D4] | 0.2% | 0.7%
CCCCCCCCCCCCCCCNc1nc(NCCCCCCCCCCC)nc(NCCN2CCOCC2)n1 [Compound N11N15D2] | 0.7% | 0.3%
CCCCCCCCCCCCCNc1nc(NCCCCCCCCCCCCC)nc(NCCN2CCCC2)n1 [Compound N13N13D3] | 3.5% | 0.7%
CCCCCCCCCCCCCCCCCCSc1nc(NCCCN2CCOCC2)nc(SCCCCCCCCCCCC)n1 [Compound S12S18D8] | 0.0% | 0.4%
CCCCCCCCCCCCCCCNc1nc(NCCCCCCCC)nc(NCCCN2CCN(C)CC2)n1 [Compound N8N15D9] | 0.1% | 0.0%
CCCCCCCCCCCCCCCCSc1nc(NCC2CCN(C)CC2)nc(SCCCCCCCCCCCC)n1 [Compound S12S16D10] | 13.2% | 7.3%
CCCCCCCCCCCCN(CCCCCCCCCCCC)c1nc(NCCCCCC)nc(NCC2CCN(C)CC2)n1 [N6^2N12D10] | 0.0% | 0.4%
CCCCCCCCCCCCCCCCCCSc1nc(NCCCN(C)C)nc(SCCCCCCCCC)n1 [Compound S9S18D6] | 11.6% | 1.7%
CCCCCCCCCNc1nc(NCCCCCCC)nc(NCCCN(C)C)n1 [Compound N7N9D6] | 0.0% | 0.0%
CCCCCCCCCCSc1nc(NCC2CCN(C)CC2)nc(SCCCCCCCCC)n1 [Compound S9S10D10] | 47.2% | 18.7%
CCCCCCCCCCCCCCCCCCNc1nc(NCCCCCCCCCCCCCCC)nc(NCCN2CCOCC2)n1 [Compound N15N18D2] | 0.0% | 0.0%
CCCCCCCCCCCCCCCNc1nc(NCCCCCCCCCCCC)nc(NCCN2CCCC2)n1 [Compound N12N15D3] | 6.5% | 1.1%
CCCCCCCCCCCCSc1nc(NCCN2CCOCC2)nc(SCCCCCCCCCCCC)n1 [Compound S12S12D2] | 0.0% | 0.1%
CCCCCCCCCCCSc1nc(NCCN2CCOCC2)nc(SCCCCCCCCCCC)n1 [Compound S11S11D2] | 0.0% | 0.2%
